Measured values reported in patent US20110172184A1, “ANTITUMOR AGENT CONTAINING 4 - [[3,5 - BIS ([…]) BENZOYL] AMINO] BENZOIC ACID” (TAIHO PHARMACEUTICAL CO., LTD., priority 2008, published 2011).

Test system: human liver cancer cell line JHH-7
Assay: Antitumor effect (tumor weight T/C) on human liver cancer cell line JHH-7 transplanted into the left lateral liver lobe of nude mice
Format: in vivo, mouse
Details: tumor weight on 15th day
Procedure: Sorafenib was weighed at every time of use, and a liquid for administration was prepared. […] BALE/cA Jcl-nu male nude mice (Clea Japan, Inc.) were used as the efficacy test animals.
On the 15th day after the initiation of administration, the mice were killed by bleeding under ether anesthesia, subsequently tumors formed in the left lateral liver lobe were extracted, and the weight of the tumors was measured. The tumor growth rate (%) was calculated by the formula shown below, and the T/C value of each of the drug administered groups was calculated, while the average tumor weight of the non-drug administered control group was taken as 100%. This T/C value was used as an index of the antitumor effect. The statistical significance of the single drug administered groups was determined by Welch's two-tailed test, and the statistical significance of the effect synergizing action obtained by combined use was determined by the intersection union test based on Welch's two-tailed test.
Tumor growth rate (%)=T/C×100
T: Average tumor weight of a group with administration of the test compound
C: Average tumor weight of a group without administration of the test compound
(§1) On the 11th day after the transplantation, the animals were grouped into seven animals per group, and the treatment experiment was initiated. Doxorubicin was administered such that 10 mg/kg, which is the maximum tolerated dose for a mouse, was administered one time intravenously. Sorafenib was orally administered once a day for 14 consecutive days.
as §1, with “Gemcitabine” for “Doxorubicin”, “120” for “10”, “intraperitoneally four times in total at an interval of 3 days.” for “one time intravenously.”

## CNC(=O)c1cc(Oc2ccc(NC(=O)Nc3ccc(Cl)c(C(F)(F)F)c3)cc2)ccn1 [sorafenib, N-(4-chloro-3-(trifluoromethyl)phenyl)-N′-(4-(2-(N-methylcarbamoyl)-4-pyridyloxy)phenyl)urea]
Comparative Example 1, sorafenib single drug, orally once a day for 14 days
  T/C value (tumor growth rate): 62%
Comparative Example 2, sorafenib single drug, orally once a day for 14 days
  T/C value (tumor growth rate): 60%
Pharmacological Test Example 1, sorafenib single drug, 10 mg/kg orally once a day for 14 days
  T/C value (tumor growth rate): 65%

## C[Si](C)(C)c1cc(C(=O)Nc2ccc(C(=O)O)cc2)cc([Si](C)(C)C)c1 [compound 1, 4-[[3,5-bis(trimethylsilyl)benzoyl]amino]benzoic acid]
Pharmacological Test Example 1, compound 1 single drug, 2 mg/kg orally once a day for 14 days
  T/C value (tumor growth rate): 51%

## Nc1ccn([C@@H]2O[C@H](CO)[C@@H](O)C2(F)F)c(=O)n1 [gemcitabine]
Comparative Example 2, gemcitabine single drug, 120 mg/kg intraperitoneally four times at an interval of 3 days
  T/C value (tumor growth rate): 47%

## COc1cccc2c1C(=O)c1c(O)c3c(c(O)c1C2=O)C[C@@](O)(C(=O)CO)C[C@@H]3O[C@H]1C[C@H](N)[C@H](O)[C@H](C)O1 [doxorubicin]
Comparative Example 1, doxorubicin single drug, 10 mg/kg one time intravenously
  T/C value (tumor growth rate): 70%
